# Results taken from patent US7994119B2, “Compounds for control of appetite” (University Of Cincinnati, priority 2004, dated 2011).
# How the values were obtained:
# 129/J male mice = test: feeding patterns of fasted mice after intraperitoneal injection (food intake); type: in vivo; settings: mice fasted 24 hours; for control of food intake (PYY analogs): numbers only in FIGS. 3-5
# Method: (§1) To study the feeding patterns of animals treated with the extended tripeptide BG-116, eight week old 129/J male mice are individually housed under 12-hour light/dark cycles with free access to water and standard chow. After acclimatizing for two weeks, mice are fasted 24 hours before the experiment. Saline (0.1 ml) or peptide (2 mg/mice) in saline (0.1 ml) is injected intraperitoneally, and the food intake during the next 4, 6, and 24 hours is monitored and quantified.
# as §1, with “the O-glycosylated tripeptide,” for “the extended tripeptide BG-116,”, “next 4” for “next 4, 6,”, “and 6” for “and 24”
# as §1, with “with BT-48 or N-α-Ac[Nle^24,28, Trp^30, Nva^31, ψ^35/36]PYY(22-36)-NH2 wherein ψ is —CH2-NH— (SEQ. ID. NO. 8),” for “with the extended tripeptide BG-116,”, “peptide (100 μg/mice)” for “peptide (2 mg/mice)”, “next 4” for “next 4, 6,”, “and 6” for “and 24”
# as §1, with “BT-56 or N-α-Ac-[Trp^27, ψ^35/36]PYY(25-36)-NH2 wherein ψ is —CH2-NH— (SEQ. ID. NO. 7),” for “extended tripeptide BG-116,”, “(100 μg/mice)” for “(2 mg/mice)”, “4” for “4, 6, and 24”
# as §1, with “BWX-115 or N-α-Ac-[Trp^30]PYY(25-36)-NH2 wherein ψ is —CH2-NH— (SEQ. ID. NO. 6),” for “the extended tripeptide BG-116,”, “(20 μg/mice)” for “(2 mg/mice)”, “4” for “4, 6,”
# [1] = system: normal and fasted mice and rats, normal and obese humans; settings: peripheral administration; cited from earlier work
# Y5 = molecular target: T1, Y5 (Homo sapiens, UniProt Q15761); settings: cited from earlier work
# T1 sequence (Q15761 1-445): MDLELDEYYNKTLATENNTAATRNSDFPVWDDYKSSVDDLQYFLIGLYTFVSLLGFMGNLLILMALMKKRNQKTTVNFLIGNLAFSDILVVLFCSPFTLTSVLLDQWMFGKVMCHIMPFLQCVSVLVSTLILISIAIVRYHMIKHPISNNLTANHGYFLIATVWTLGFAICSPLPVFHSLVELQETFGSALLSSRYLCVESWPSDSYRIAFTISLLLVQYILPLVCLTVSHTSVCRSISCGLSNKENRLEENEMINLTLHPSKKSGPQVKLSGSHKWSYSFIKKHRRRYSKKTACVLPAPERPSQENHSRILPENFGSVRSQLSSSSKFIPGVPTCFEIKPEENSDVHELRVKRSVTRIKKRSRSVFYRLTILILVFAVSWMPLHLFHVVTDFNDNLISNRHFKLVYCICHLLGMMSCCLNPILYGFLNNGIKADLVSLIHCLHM
# Y4 = Y4 (Homo sapiens, UniProt P50391); settings: cited from earlier work
# Y4, sequence (P50391 whole entry): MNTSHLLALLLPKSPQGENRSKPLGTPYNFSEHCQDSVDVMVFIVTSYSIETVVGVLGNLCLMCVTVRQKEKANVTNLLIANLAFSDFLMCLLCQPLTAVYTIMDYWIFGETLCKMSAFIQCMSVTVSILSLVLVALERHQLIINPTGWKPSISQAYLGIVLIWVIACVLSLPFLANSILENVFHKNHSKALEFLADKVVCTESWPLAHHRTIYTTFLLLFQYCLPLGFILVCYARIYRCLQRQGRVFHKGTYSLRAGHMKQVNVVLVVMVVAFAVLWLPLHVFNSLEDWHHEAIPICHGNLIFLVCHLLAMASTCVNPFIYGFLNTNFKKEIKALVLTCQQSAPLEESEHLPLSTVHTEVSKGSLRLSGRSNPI
substance,measurement,setting,value
N-α-Ac-Trp-Arg-Tyr-[β-D-Glc]-NH2 [BG-7],inhibition of feeding (O-glycosylated tripeptide),129/J male mice; numbers only in FIG. 2,can inhibit feeding in subjects
"N-α-Ac-[Trp^27, ψ^35/36]PYY(25-36)-NH2 (Ac-RHWLNLVTRQRY-NH2; also: reduced CH2-NH bond between residues 35/36) [BT-56]",control of food intake (PYY analogs),129/J male mice,could be used to control food intake in animals and humans
PYY(3-36): a NPY Y2-preferring ligand,food intake,[1],attenuate food intake
same,activation of Y5 receptors,Y5,potently activate
same,activation of Y4 receptors,Y4,potently activate
"N-α-Ac[Nle^24,28, Trp^30, Nva^31, ψ^35/36]PYY(22-36)-NH2 (ASXRHYXNWXTRQRY; N-acetyl, C-amide, reduced CH2-NH bond 35/36; Artficial peptide) [BT-48]",control of food intake (PYY analogs),129/J male mice,could be used to control food intake in animals and humans
N-α-Ac-[Trp^30]PYY(25-36)-NH2 (Ac-RHYLNWVTRQRY-NH2) [BWX-115],control of food intake (PYY analogs),129/J male mice,could be used to control food intake in animals and humans
